Experiment: Binding affinity of compound to P-glycoprotein recombinant domain of prenylated xanthones was evaluated
In the case of `COc1cc(OCC=C(C)C)c2c(=O)c3c(OC)c(OC)ccc3oc2c1`, the Kd is reported as 13.9 µM.
Work on `C=CC(C)(C)c1c(OC)cc2oc3ccc(OC)c(OC)c3c(=O)c2c1O` yielded a Kd of 0.25 µM.
`COc1cc2oc3ccc(OC)c(OC)c3c(=O)c2c2c1C(C)(C)C(C)O2` (stereo not given) showed a Kd of 24.8 µM.
`COCCOCOc1cc(OCC=C(C)C)c2c(=O)cc(-c3ccccc3)oc2c1` showed a Kd of 6.1 µM.
With `COCCOCOc1cc(O)c2c(=O)cc(-c3ccccc3)oc2c1CC=C(C)C` the Kd was 0.1 µM.
`COc1cc(O)c2c(=O)c3c(OC)c(OC)ccc3oc2c1CC=C(C)C` showed a Kd of 0.59 µM.
Work on `COc1cc2oc3ccc(OC)c(OC)c3c(=O)c2c(O)c1CC=C(C)C` yielded a Kd of 0.39 µM.
Molecule `C=CC(C)(C)c1c(OCOCCOC)cc2oc(-c3ccccc3)cc(=O)c2c1O` has a Kd of 0.1 µM.
In the case of `COc1cc(O)c2c(=O)c3c(OC)c(OC)ccc3oc2c1` [DECUSSATIN], the Kd is reported as 28.8 µM.
`COCCOCOc1cc(O)c2c(=O)cc(-c3ccccc3)oc2c1` gave a Kd of 8.05 µM.
